Assay results taken from the supplement of paper PMC10307832.

Key:
Assay in all cases: relative viability (nuclei count vs DMSO), 5 days (fraction); higher = more cells survive
XMD14-99 + Dasatinib = compound: CN1CCN(CC1)C2=CC(=C(C=C2)NC3=NC(=C(S3)C(=O)C4=C(C=CC=C4Cl)Cl)N)OC [XMD14-99] + Cc1nc(Nc2ncc(C(=O)Nc3c(C)cccc3Cl)s2)cc(N2CCN(CCO)CC2)n1 [Dasatinib] (partner 0.075 µM)
Method in brief: (§1)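 Lung cancer cell lines were pin-tool dosed in 1536-well plates on the day after seeding, with either a lone drug or a fixed anchor-drug dose plus five library-drug doses (not always all listed) in √10 steps. Nuclei were counted on 4× images after 5 days. Relative viability is the ratio of treated-well to vehicle-well nuclei counts, with each value a median of duplicate plates.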

AZD1208 + Alpelisib = compound: N[C@@H]1CCCN(c2c(/C=C3\SC(=O)NC3=O)cccc2-c2ccccc2)C1 [AZD1208] + Cc1nc(NC(=O)N2CCC[C@H]2C(N)=O)sc1-c1ccnc(C(C)(C)C(F)(F)F)c1 [Alpelisib] (partner 2 µM)
Method in brief: as §1

AZD1208 + Vorinostat = compound: N[C@@H]1CCCN(c2c(/C=C3\SC(=O)NC3=O)cccc2-c2ccccc2)C1 [AZD1208] + O=C(CCCCCCC(=O)Nc1ccccc1)NO [Vorinostat] (partner 1 µM)
Method in brief: as §1

AZD1208 + OSI-027 = compound: N[C@@H]1CCCN(c2c(/C=C3\SC(=O)NC3=O)cccc2-c2ccccc2)C1 [AZD1208] + COc1cccc2cc(-c3nc([C@H]4CC[C@H](C(=O)O)CC4)n4ncnc(N)c34)[nH]c12 [OSI-027] (partner 0.5 µM)
Method in brief: as §1

Cell Line | relative viability (XMD14-99 + Dasatinib; first compound 0.08 µM) | relative viability (XMD14-99 + Dasatinib; first compound 0.8 µM) | relative viability (XMD14-99 + Dasatinib; first compound 2.53 µM) | relative viability (XMD14-99 + Dasatinib; first compound 8 µM) | relative viability (AZD1208 + Alpelisib; first compound 0.08 µM) | relative viability (AZD1208 + Alpelisib; first compound 0.253 µM) | relative viability (AZD1208 + Alpelisib; first compound 0.8 µM) | relative viability (AZD1208 + Alpelisib; first compound 2.53 µM) | relative viability (AZD1208 + Alpelisib; first compound 8 µM) | relative viability (AZD1208 + Vorinostat; first compound 0.08 µM) | relative viability (AZD1208 + Vorinostat; first compound 0.253 µM) | relative viability (AZD1208 + Vorinostat; first compound 0.8 µM) | relative viability (AZD1208 + Vorinostat; first compound 2.53 µM) | relative viability (AZD1208 + Vorinostat; first compound 8 µM) | relative viability (AZD1208 + OSI-027; first compound 0.08 µM) | relative viability (AZD1208 + OSI-027; first compound 0.253 µM) | relative viability (AZD1208 + OSI-027; first compound 0.8 µM) | relative viability (AZD1208 + OSI-027; first compound 2.53 µM) | relative viability (AZD1208 + OSI-027; first compound 8 µM)
NCI-H2126 | 0.617 | 0.632 | 0.513 | 0.402 | 0.703 | 0.724 | 0.652 | 0.642 | 0.624 | 0.745 | 0.669 | 0.676 | 0.535 | 0.563 | 0.74 | 0.704 | 0.68 | 0.613 | 0.674
NCI-H1437 | 0.437 | 0.457 | 0.35 | 0.234 | 0.927 | 0.981 | 0.796 | 0.827 | 0.504 | 0.805 | 0.93 | 0.933 | 1 | 0.857 | 0.821 | 1.07 | 0.837 | 0.774 | 0.764
NCI-H661 | 0.976 | 0.86 | 0.828 | 0.627 | 0.706 | 0.815 | 0.529 | 0.724 | 0.665 | 0.796 | 0.775 | 0.827 | 0.82 | 0.917 | 0.613 | 0.714 | 0.648 | 0.657 | 0.663
COR-L23 | 0.556 | 0.452 | 0.337 | 0.183 | 0.735 | 0.64 | 0.715 | 0.721 | 0.657 | 0.488 | 0.401 | 0.49 | 0.433 | 0.41 | 0.762 | 0.779 | 0.642 | 0.728 | 0.452
COR-L 105 | 0.345 | 0.388 | 0.255 | 0.281 | 1.06 | 0.94 | 0.763 | 1.06 | 0.807 | 1.04 | 0.833 | 0.898 | 0.832 | 0.779 | 0.613 | 0.745 | 0.542 | – | 0.736
LK-2 | 0.279 | 0.214 | 0.281 | 0.204 | 0.85 | 0.759 | 0.618 | 0.567 | 0.477 | 0.329 | 0.322 | 0.255 | 0.302 | 0.247 | 0.184 | 0.155 | 0.157 | 0.123 | 0.144
201T | 0.593 | 0.618 | 0.546 | 0.523 | 1.04 | 0.948 | 0.919 | 1.04 | 0.976 | 0.961 | 1.01 | 0.967 | 0.949 | 0.952 | 0.81 | 0.78 | 0.512 | 0.53 | 0.477
NCI-H647 | 0.12 | 0.216 | 0.202 | 0.167 | 1.03 | 1.28 | 1.06 | 1.06 | 1.01 | 0.521 | 0.701 | 0.643 | 0.428 | 0.256 | 0.665 | 0.885 | 0.508 | 0.515 | 0.47
H3255 | 0.437 | 0.496 | 0.347 | 0.249 | 0.662 | 0.702 | 0.639 | 0.567 | 0.615 | 0.831 | 0.869 | 0.772 | 0.747 | 0.74 | 0.506 | 0.54 | 0.429 | 0.491 | 0.543
NCI-H650 | 0.467 | 0.422 | 0.451 | 0.356 | 1.11 | 1.15 | 1.07 | 0.967 | 0.823 | 0.436 | 0.379 | 0.47 | 0.414 | 0.351 | 0.574 | 0.435 | 0.477 | 0.394 | 0.398
NCI-H2085 | 0.267 | 0.261 | 0.273 | 0.241 | 0.921 | 0.979 | 0.885 | 1.02 | 1.03 | 0.796 | 0.821 | 0.749 | 0.82 | 0.751 | 0.796 | 0.933 | 0.585 | 0.934 | 0.661
NCI-H2347 | 0.284 | 0.308 | 0.352 | 0.204 | 1.01 | 0.936 | 1.07 | 0.904 | 0.96 | 0.531 | 0.767 | 0.533 | 0.599 | 0.803 | 0.321 | 0.344 | 0.329 | 0.302 | 0.35
NCI-H1944 | 0.193 | 0.239 | 0.222 | 0.201 | 0.864 | 0.762 | 0.715 | 0.726 | 0.6 | 0.596 | 0.665 | 0.618 | 0.468 | 0.379 | 0.407 | 0.341 | 0.305 | 0.282 | 0.249
NCI-H1793 | 0.403 | 0.362 | 0.355 | 0.334 | 0.639 | 0.778 | 0.664 | 0.507 | 0.498 | 0.841 | 0.949 | 0.752 | 0.954 | 0.713 | 0.244 | 0.254 | 0.268 | 0.31 | 0.25
NCI-H596 | 0.597 | 0.604 | 0.572 | 0.562 | 0.387 | 0.573 | 0.351 | 0.376 | 0.353 | 0.628 | 0.632 | 0.558 | 0.661 | 0.48 | 0.666 | 0.817 | 0.62 | 0.56 | 0.359
NCI-H520 | 0.171 | 0.21 | 0.176 | 0.169 | 0.848 | 0.805 | 0.641 | 0.896 | 0.802 | 0.735 | 0.73 | 0.711 | 0.768 | 0.449 | 0.207 | 0.258 | 0.189 | 0.179 | 0.188
EKVX | 0.497 | 0.561 | 0.5 | 0.373 | 0.866 | 0.936 | 0.775 | 0.802 | 0.71 | 0.766 | 0.583 | 0.744 | 0.735 | 0.763 | 0.674 | 0.651 | 0.634 | 0.673 | 0.648
